Experimental data published in ChEMBL document CHEMBL2434905, “2-Amino-6-chloro-3,4-dihydroquinazoline: A novel 5-HT3 receptor antagonist with antidepressant character” (Bioorg Med Chem Lett, 2013).

Key:
[1] = molecular target: T1, 5-hydroxytryptamine receptor 3A (Homo sapiens, UniProt P46098); test: Displacement of [3H]GR65630 from 5-HT3 receptor (unknown origin) expressed in mouse/rat NG108-15 cells after 30 mins by liquid scintillation counting analysis; assay type: cell-based
T1 sequence (P46098 whole entry): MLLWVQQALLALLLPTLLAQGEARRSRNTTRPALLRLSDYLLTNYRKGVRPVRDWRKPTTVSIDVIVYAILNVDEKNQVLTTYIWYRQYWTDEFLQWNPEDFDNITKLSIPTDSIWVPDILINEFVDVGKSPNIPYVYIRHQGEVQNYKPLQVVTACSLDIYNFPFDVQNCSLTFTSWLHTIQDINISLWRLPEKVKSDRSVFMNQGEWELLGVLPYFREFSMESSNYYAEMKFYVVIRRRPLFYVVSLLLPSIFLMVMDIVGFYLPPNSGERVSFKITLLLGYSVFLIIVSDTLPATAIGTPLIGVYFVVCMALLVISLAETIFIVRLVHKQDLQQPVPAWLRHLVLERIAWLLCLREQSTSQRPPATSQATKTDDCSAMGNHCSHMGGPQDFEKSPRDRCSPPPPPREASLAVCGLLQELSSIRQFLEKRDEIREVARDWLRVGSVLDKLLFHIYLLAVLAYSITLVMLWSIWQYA

[2] = molecular target: 5-hydroxytryptamine receptor 2A (Homo sapiens, UniProt P28223); test: Displacement of [3H]Ketanserin from human recombinant 5-HT2A receptor expressed in HEK cells after 90 mins by scintillation counting analysis; assay type: cell-based, HEK293
Sequence of 5-hydroxytryptamine receptor 2A (P28223 whole entry): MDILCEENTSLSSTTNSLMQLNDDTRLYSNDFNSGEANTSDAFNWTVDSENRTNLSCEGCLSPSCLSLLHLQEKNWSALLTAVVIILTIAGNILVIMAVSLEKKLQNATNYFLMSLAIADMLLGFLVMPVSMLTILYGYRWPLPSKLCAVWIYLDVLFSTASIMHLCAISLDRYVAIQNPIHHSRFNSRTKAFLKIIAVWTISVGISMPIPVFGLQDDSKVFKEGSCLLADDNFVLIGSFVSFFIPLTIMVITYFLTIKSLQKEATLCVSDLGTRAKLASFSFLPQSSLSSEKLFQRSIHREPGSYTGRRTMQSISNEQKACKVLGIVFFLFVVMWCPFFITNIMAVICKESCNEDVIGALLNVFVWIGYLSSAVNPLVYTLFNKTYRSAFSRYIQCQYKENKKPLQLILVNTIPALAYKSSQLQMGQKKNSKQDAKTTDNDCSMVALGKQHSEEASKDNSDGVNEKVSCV

[3] = molecular target: Delta-type opioid receptor (Homo sapiens, UniProt P41143); test: Displacement of [3H]DADLE from human recombinant delta opioid receptor expressed in HEK cells after 90 mins by scintillation counting analysis; assay type: cell-based, HEK293
Sequence of Delta-type opioid receptor (P41143 whole entry): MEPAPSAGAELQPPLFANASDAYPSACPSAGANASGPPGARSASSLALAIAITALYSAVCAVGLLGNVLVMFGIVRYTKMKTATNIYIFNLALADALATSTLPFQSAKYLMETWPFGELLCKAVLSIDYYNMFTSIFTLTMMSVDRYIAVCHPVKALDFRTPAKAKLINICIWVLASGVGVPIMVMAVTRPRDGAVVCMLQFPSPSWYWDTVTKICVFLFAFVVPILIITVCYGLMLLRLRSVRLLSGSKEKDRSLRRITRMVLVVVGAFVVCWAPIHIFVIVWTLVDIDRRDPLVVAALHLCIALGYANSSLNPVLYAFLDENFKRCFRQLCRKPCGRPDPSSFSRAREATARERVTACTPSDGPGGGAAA

D(1B) dopamine receptor = D(1B) dopamine receptor (Homo sapiens, UniProt P21918); test: Displacement of [3H]SCH23390 from human recombinant dopamine D5 receptor expressed in HEK cells after 90 mins by scintillation counting analysis; assay type: cell-based, HEK293
Sequence of D(1B) dopamine receptor (P21918 whole entry): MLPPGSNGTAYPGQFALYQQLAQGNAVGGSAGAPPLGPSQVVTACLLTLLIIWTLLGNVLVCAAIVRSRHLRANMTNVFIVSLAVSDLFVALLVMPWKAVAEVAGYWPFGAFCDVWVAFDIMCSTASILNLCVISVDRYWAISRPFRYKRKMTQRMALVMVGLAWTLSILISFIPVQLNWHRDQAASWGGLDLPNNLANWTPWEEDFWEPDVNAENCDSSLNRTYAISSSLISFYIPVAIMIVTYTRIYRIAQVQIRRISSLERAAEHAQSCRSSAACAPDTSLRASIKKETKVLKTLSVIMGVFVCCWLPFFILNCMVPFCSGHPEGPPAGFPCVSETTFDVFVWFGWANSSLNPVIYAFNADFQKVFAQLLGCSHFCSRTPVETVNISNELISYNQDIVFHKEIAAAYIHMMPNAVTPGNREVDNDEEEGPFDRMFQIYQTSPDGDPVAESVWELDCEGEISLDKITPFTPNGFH

[4] = molecular target: Beta-1 adrenergic receptor (Homo sapiens, UniProt P08588); test: Binding affinity to human recombinant beta1-adrenoceptor expressed in CHO cells after 90 mins by radioligand displacement assay; assay type: cell-based
Translocator protein = Translocator protein (Rattus norvegicus, UniProt P16257); test: Displacement of [3H]PK11195 from PBR in rat brain after 90 mins by scintillation counting analysis; assay type: tissue-based
Sequence of Translocator protein (P16257 whole entry, looked up): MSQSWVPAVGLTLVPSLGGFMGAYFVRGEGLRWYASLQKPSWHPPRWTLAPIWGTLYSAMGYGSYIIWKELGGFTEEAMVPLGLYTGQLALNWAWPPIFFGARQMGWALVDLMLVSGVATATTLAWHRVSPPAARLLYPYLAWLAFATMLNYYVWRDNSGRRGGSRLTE

Histamine H1 receptor = Histamine H1 receptor (Homo sapiens, UniProt P35367); test: Displacement of [3H]Pyrilamine from human recombinant histamine H1 receptor expressed in HEK cells after 90 mins by scintillation counting analysis; assay type: cell-based, HEK293
[5] = molecular target: Neuronal acetylcholine receptor; alpha4/beta2 (Homo sapiens, UniProt P17787+P43681); test: Displacement of [3H]-epibatidine from human alpha4beta2 nAChR transfected in HEK293 cells by scintillation counting analysis; assay type: cell-based
Sequence of Neuronal acetylcholine receptor; alpha4/beta2 (P17787 whole entry): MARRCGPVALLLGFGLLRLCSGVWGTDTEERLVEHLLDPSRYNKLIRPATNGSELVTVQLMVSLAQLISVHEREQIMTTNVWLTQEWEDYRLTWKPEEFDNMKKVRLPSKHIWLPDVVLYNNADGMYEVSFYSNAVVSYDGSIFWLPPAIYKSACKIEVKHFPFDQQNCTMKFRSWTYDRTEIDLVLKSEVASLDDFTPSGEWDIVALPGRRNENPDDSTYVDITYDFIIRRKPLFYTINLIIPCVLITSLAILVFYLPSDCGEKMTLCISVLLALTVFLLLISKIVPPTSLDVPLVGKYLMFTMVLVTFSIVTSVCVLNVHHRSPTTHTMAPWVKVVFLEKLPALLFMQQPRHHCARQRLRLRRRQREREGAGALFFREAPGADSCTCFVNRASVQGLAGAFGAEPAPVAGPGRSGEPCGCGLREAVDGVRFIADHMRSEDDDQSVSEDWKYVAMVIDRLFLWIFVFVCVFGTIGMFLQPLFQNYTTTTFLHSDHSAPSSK
Sequence of Neuronal acetylcholine receptor; alpha4/beta2 (P43681 whole entry): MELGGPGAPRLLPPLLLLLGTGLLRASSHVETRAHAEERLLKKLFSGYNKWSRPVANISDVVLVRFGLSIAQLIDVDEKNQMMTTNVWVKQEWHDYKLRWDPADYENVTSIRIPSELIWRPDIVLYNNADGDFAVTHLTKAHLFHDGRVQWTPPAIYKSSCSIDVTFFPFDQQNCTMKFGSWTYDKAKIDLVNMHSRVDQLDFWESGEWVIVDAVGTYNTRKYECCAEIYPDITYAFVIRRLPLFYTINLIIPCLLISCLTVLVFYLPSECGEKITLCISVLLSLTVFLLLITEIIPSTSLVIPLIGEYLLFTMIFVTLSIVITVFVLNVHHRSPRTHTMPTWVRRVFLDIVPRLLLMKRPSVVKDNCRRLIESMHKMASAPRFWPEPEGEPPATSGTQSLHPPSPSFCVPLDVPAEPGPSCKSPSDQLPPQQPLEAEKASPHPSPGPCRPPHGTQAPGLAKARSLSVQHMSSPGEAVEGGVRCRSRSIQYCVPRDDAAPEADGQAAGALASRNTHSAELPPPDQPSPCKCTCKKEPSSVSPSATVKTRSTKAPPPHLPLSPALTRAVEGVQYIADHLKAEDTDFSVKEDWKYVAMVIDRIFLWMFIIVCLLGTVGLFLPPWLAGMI

[6] = molecular target: Muscarinic acetylcholine receptor M5 (Homo sapiens, UniProt P08912); test: Binding affinity to human recombinant muscarinic M5 receptor expressed in CHO cells after 90 mins by radioligand displacement assay; assay type: cell-based
[7] = Displacement of [3H]DTG from sigma2 receptor (unknown origin) expressed in rat PC12 cells after 90 mins by scintillation counting analysis; assay type: cell-based, Homo sapiens; details: pc-12
[8] = molecular target: Muscarinic acetylcholine receptor M1 (Homo sapiens, UniProt P11229); test: Binding affinity to human recombinant muscarinic M1 receptor expressed in CHO cells after 90 mins by radioligand displacement assay; assay type: cell-based
D(1A) dopamine receptor = D(1A) dopamine receptor (Homo sapiens, UniProt P21728); test: Displacement of [3H]SCH23390 from human recombinant dopamine D1 receptor expressed in HEK cells after 90 mins by scintillation counting analysis; assay type: cell-based, HEK293
Sequence of D(1A) dopamine receptor (P21728 whole entry): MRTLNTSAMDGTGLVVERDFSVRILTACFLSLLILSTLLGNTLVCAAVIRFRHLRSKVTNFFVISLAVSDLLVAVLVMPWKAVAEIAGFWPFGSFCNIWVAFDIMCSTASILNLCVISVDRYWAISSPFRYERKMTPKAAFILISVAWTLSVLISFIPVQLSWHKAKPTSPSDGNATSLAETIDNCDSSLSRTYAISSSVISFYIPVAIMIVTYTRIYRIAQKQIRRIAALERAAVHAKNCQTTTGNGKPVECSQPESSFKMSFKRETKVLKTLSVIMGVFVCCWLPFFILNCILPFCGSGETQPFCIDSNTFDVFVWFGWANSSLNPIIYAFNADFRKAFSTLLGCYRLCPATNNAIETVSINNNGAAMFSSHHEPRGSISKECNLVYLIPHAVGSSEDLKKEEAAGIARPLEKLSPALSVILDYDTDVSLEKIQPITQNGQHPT

[9] = molecular target: Beta-3 adrenergic receptor (Homo sapiens, UniProt P13945); test: Binding affinity to human recombinant beta3-adrenoceptor expressed in HEK cells after 90 mins by radioligand displacement assay; assay type: cell-based, HEK293
[10] = molecular target: Muscarinic acetylcholine receptor M3 (Homo sapiens, UniProt P20309); test: Binding affinity to human recombinant muscarinic M3 receptor expressed in CHO cells after 90 mins by radioligand displacement assay; assay type: cell-based
[11] = molecular target: Alpha-1D adrenergic receptor (Homo sapiens, UniProt P25100); test: Displacement of [3H]Prazosin from human recombinant alpha1D-adrenoceptor after 90 mins by scintillation counting analysis
Sequence of Alpha-1D adrenergic receptor (P25100 whole entry): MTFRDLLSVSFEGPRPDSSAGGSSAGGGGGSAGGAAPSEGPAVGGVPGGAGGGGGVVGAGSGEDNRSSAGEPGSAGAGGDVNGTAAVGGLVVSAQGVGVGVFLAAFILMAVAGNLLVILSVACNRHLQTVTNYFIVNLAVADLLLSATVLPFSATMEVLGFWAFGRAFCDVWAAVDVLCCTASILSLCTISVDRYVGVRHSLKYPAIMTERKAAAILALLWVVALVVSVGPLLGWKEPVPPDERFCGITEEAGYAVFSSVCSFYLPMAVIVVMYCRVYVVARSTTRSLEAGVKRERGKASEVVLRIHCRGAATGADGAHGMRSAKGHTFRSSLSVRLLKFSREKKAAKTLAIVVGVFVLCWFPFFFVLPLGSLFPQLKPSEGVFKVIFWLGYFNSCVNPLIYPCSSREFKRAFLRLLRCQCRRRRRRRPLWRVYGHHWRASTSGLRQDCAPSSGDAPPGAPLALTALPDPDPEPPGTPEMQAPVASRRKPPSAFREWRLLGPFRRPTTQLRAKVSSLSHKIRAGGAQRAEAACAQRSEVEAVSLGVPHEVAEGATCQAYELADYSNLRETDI

[12] = molecular target: 5-hydroxytryptamine receptor 1D (Homo sapiens, UniProt P28221); test: Displacement of [3H]5-CT from human recombinant 5-HT1D receptor expressed in HEK cells after 90 mins by scintillation counting analysis; assay type: cell-based, HEK293
[13] = molecular target: 5-hydroxytryptamine receptor 4 (Homo sapiens, UniProt Q13639); test: Displacement of [[3H]GR113808 from human recombinant 5-HT4 receptor after 90 mins by scintillation counting analysis
D(3) dopamine receptor = D(3) dopamine receptor (Homo sapiens, UniProt P35462); test: Displacement of [3H]N-methylspiperone from dopamine D3 receptor (unknown origin) after 90 mins by scintillation counting analysis
Sequence of D(3) dopamine receptor (P35462 whole entry): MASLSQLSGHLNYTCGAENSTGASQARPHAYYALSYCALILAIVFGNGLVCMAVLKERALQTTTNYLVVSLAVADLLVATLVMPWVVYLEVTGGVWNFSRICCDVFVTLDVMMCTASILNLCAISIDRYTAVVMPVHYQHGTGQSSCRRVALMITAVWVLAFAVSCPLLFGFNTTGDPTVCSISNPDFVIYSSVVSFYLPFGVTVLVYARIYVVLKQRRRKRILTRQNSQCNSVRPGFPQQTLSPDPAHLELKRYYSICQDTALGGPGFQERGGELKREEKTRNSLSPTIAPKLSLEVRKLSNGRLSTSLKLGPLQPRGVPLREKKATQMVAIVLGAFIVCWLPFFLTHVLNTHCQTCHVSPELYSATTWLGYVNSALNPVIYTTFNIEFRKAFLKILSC

[14] = Displacement of [3H]Flunitrazepam from BZP receptor in rat brain after 90 mins by scintillation counting analysis; assay type: tissue-based
[15] = molecular target: 5-hydroxytryptamine receptor 2B (Homo sapiens, UniProt P41595); test: Displacement of [3H]LSD from human recombinant 5-HT2B receptor expressed in HEK cells after 90 mins by scintillation counting analysis; assay type: cell-based, HEK293
Mus musculus = test: Antidepressant activity in ip dosed ICR mouse assessed as immobility time by tail suspension test; assay type: functional
[16] = molecular target: Nicotinic acetylcholine receptor alpha2/beta2 (Homo sapiens, UniProt P02708+P17787); test: Displacement of [3H]-epibatidine from human alpha2beta2 nAChR transfected in HEK293 cells by scintillation counting analysis; assay type: cell-based
[17] = molecular target: Sodium-dependent dopamine transporter (Homo sapiens, UniProt Q01959); test: Displacement of [3H]WIN35428 from human recombinant sodium-dependent dopamine transporter expressed in HEK cells after 90 mins by scintillation counting analysis; assay type: cell-based, HEK293
Sequence of Sodium-dependent dopamine transporter (Q01959 whole entry): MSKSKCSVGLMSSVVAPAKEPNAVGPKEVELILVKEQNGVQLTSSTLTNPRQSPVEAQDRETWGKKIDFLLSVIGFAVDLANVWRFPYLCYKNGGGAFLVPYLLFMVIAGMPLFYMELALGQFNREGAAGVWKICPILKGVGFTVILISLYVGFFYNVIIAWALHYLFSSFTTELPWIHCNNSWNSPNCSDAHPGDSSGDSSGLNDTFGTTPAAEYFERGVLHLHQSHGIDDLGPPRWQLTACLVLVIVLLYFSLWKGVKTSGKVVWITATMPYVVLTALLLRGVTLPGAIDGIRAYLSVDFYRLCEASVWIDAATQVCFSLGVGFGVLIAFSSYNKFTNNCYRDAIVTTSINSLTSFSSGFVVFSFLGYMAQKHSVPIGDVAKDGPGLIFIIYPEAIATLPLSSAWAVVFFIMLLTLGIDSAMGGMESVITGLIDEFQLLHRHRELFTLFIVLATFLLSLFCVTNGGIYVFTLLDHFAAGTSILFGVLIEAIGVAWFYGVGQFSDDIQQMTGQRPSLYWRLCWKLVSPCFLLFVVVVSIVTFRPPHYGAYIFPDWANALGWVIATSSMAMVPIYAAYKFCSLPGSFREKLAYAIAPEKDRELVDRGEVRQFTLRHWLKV

[18] = molecular target: Alpha-1A adrenergic receptor (Homo sapiens, UniProt P35348); test: Displacement of [3H]Prazosin from human recombinant alpha1A-adrenoceptor after 90 mins by scintillation counting analysis
D(2) dopamine receptor = D(2) dopamine receptor (Homo sapiens, UniProt P14416); test: Displacement of [[3H]N-methylspiperone from human recombinant dopamine D2 receptor expressed in human fibroblasts after 90 mins by scintillation counting analysis
Mu-type opioid receptor = Mu-type opioid receptor (Homo sapiens, UniProt P35372); test: Displacement of [3H]DAMGO from human recombinant mu opioid receptor expressed in HEK cells after 90 mins by scintillation counting analysis; assay type: cell-based, HEK293
[19] = molecular target: T1, 5-hydroxytryptamine receptor 3A; test: Displacement of [3H]GR65630 from human 5-HT3 receptor expressed in African green monkey COS cells after 90 mins by scintillation counting analysis; assay type: cell-based

Structure (SMILES): Cl.NC1=Nc2ccc(Cl)cc2CN1
- Ki [1]: 0.034 µM
- Ki [2]: 1.32 µM
- Ki [3]: > 10 µM
- Ki (D(1B) dopamine receptor): > 10 µM
- Ki [4]: > 10 µM
- Ki (Translocator protein): > 10 µM
- Ki (Histamine H1 receptor): > 10 µM
- Ki [5]: > 10 µM
- Ki [6]: > 10 µM
- Ki [7]: 2.65 µM
- pKi [7]: 5.6
- Ki [8]: > 10 µM
- Ki (D(1A) dopamine receptor): > 10 µM
- Ki [9]: > 10 µM
- Ki [10]: > 10 µM
- Ki [11]: > 10 µM
- Ki [12]: 0.684 µM
- Ki [13]: > 10 µM
- Ki (D(3) dopamine receptor): > 10 µM
- Ki [14]: > 10 µM
- Ki [15]: 0.565 µM
- ED50 (Mus musculus): 0.23 mg/kg
- Ki [16]: > 10 µM
- Ki [17]: > 10 µM
- Ki [18]: > 10 µM
- Ki (D(2) dopamine receptor): > 10 µM
- Ki (Mu-type opioid receptor): > 10 µM
- Ki [19]: 0.08 µM
